Source: US20090176817A1, “Method of Treatment of Diarrhea-Predominant Irritable Bowel Syndrome in a Subject” (priority 2005, published 2009)

Key:
[1] = Study S.241.2.112: population pharmacokinetics (NONMEM) in IBS patients; format: in vivo, human; settings: for predicted steady-state AUC(0-τ) / predicted steady-state Cmax: covariate population PK model, mean (SD); for Increase of apparent oral clearance per 1 mL/min creatinine clearance: population model; for half-life: both sexes
Procedure: The pharmacokinetics and pharmacodynamics of cilansetron following multiple oral administration in non-constipated IBS patients have been examined in a population pharmacokinetic (NONMEM) analysis of a Phase II trial. The study was a double-blind, placebo-controlled, randomized, multi-center, parallel-group, dose ranging study to investigate the Efficacy and safety of four different doses of cilansetron (1 mg, 2 mg, 8 mg, and 16 mg TID) in patients with established IBS (non-constipated patients who suffered from IBS according to the Rome Criteria and were not bothered by constipation for >25% of their IBS episodes). The study was to be performed in approximately 50 centers. A sufficient number of patients were to be recruited to insure that at least 88 patients per treatment group were evaluable for efficacy and to get a total of 440 completers. […] There were interim assessments at the end of the 4th week (Visit 3; Day 29) and 8th week (Visit 4; Day 57) and a final assessment at the end of the 12th week (Visit 5; poststudy). Single blood samples for population pharmacokinetic analyses were drawn at Visits 3, 4, 5 or early termination, at 31 of the participating sites. With the exception of Visit 3, the timing of the blood draw in relation to the previous dose was not specified for any of the samples collected, but the time of sampling and the time of last dosing was recorded for each sample collected. For Visit 3, the blood sample had to be taken between 15 minutes and 2 hours of the morning or midday dose.
Various covariates were screened during development of the population pharmacokinetic model, including age, height, weight, body surface area, body mass index, race, gender, smoking status, serum creatinine levels, serum creatinine clearance, total bilirubin levels, cilansetron dose, and concomitant medication usage. Some efficacy and safety parameters were also evaluated in this population analysis using correlation analyses. Efficacy parameters evaluated included overall relief of IBS symptoms (Responder or Non-Responder), intensity of abdominal pain, number of stools and stool consistency, symptoms of abdominal and rectal discomfort (straining, urgency, feeling of incomplete defecation, passage of mucus, bloating, and feeling of abdominal distension), and upper GI symptoms at Visit 5 (vomiting, heartburn, early satiety, postprandial fullness, sensation of prolonged digestion, and nausea). Safety parameters evaluated included the top ten most frequently observed adverse events (constipation, flatulence, nausea, abdominal pain, headache, dyspepsia, infection, gastrointestinal disorders, anorexia, and diarrhea).
The population analysis included data from 160 patients (63 males and 97 females) with a median age of 45.5 years (range: 20-81 years), median weight of 78 kg (range: 47-121 kg), and median height of 170 cm (range: 147-196 cm). More than 90% of the patients were White and 18.8% of the patients were considered smokers. […] A total of 392 quantifiable concentrations for cilansetron, 393 quantifiable concentrations for (4S)-hydroxy cilansetron, and 397 quantifiable concentrations for (4R)-hydroxy cilansetron from 160 patients were included in the NONMEM datasets for population analyses.
FIG. 54, FIG. 55, and FIG. 56 present mean steady-state plasma concentration-time profiles for cilansetron and its 4-hydroxy metabolites, and Table 2.7.2.3.29 and Table 2.7.2.3.30 present descriptive statistics for the estimated pharmacokinetic parameters of cilansetron and its 4-hydroxy metabolites from the final covariate population pharmacokinetic model. The cilansetron concentration data were best described by a one-compartment model with first-order input, an absorption lag time, and first-order elimination. A log-normal distribution was used to describe the variability of clearance, volume of distribution and absorption rate constant between patients. The residual error was best described by an exponential model. […]

human P-glycoprotein = target: T1, human P-glycoprotein (Homo sapiens, UniProt P08183); assay: Study K.241.6026: in vitro transport by P-glycoprotein in PK 1 LLC MDR cells; format: in vitro ADME
T1 construct: expressed in transfected cells; host or cells: PK 1 LLC MDR cells (LLC-PK1 porcine kidney cells expressing human MDR1, by own knowledge)
T1 sequence (P08183 whole entry): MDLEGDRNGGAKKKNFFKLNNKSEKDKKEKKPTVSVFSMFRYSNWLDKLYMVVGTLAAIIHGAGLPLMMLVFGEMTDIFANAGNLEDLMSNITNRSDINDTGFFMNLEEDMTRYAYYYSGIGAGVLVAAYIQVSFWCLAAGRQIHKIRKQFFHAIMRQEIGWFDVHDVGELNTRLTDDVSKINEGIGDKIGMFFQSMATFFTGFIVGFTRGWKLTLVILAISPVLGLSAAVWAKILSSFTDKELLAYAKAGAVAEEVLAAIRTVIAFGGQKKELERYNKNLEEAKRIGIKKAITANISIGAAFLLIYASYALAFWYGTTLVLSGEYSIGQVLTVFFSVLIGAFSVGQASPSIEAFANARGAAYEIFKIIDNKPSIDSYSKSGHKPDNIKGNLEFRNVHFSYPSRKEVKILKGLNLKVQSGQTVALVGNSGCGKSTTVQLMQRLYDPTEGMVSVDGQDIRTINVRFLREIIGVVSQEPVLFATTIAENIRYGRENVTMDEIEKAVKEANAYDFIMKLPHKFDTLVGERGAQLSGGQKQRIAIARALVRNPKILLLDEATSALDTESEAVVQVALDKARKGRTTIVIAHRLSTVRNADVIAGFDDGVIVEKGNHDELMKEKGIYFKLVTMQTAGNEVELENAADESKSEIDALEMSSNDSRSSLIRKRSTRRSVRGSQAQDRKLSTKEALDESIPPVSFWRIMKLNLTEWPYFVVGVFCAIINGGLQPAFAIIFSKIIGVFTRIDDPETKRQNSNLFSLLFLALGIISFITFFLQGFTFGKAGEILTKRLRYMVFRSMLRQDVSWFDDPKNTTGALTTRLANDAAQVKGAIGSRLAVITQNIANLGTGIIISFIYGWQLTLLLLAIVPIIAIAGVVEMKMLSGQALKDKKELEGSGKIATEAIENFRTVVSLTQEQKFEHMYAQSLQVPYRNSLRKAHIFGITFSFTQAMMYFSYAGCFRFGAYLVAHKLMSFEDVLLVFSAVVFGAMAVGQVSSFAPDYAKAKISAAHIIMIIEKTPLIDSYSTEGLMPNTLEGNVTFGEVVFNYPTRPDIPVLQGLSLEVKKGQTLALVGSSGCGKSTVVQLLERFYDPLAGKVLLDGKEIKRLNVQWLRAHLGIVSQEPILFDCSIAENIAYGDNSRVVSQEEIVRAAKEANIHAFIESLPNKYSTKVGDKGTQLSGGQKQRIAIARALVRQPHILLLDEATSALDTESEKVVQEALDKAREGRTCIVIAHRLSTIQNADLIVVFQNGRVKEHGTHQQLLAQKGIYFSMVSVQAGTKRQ

[2] = Study S.241.1.103: 14C mass balance, 8 mg oral and IV; format: in vivo, human
Procedure: The extent of absorption, distribution, metabolism, and elimination of cilansetron has been examined in an open-label, randomized, two period, crossover, mass balance study in 6 healthy male subjects who were treated with a single oral and single […] (30-minute infusion) of 8 mg ^14C-labeled (50 K μCi) cilansetron, with a washout of at least 2 weeks between periods. The ^14C-cilansetron was appropriately labeled in the aromatic ring and the label was therefore not metabolically labile. Serial blood samples, urine collection, and fecal collection were performed up to 144 hours following each dose. ^14C-radioactivity was measured in plasma, whole blood, urine, and feces, and unchanged cilansetron was measured in plasma and urine. Identification of metabolites of cilansetron was performed in plasma, urine, and feces. The results of this study are presented in Table 2.7.2.3.15 and the mean concentration-time plots for ^14C-radioactivity and unchanged cilansetron are shown in FIG. 24 and FIG. 25.
Cilansetron and metabolite profiles in plasma, urine, and feces were evaluated using HPLC separation followed by determination of radioactivity using scintillation counting. Cilansetron, (4R)-hydroxy cilansetron, and (4S)-hydroxy cilansetron accounted for 29.3%, 25.7%, and 13.8% of the total radioactivity, respectively, in plasma at 6 hours after oral administration, and for 46.2%, 20.0% and 14.1%3 of the total radioactivity in plasma at 3 hours after IV administration. The cumulative percent of cilansetron and 4-hydroxy metabolites excreted in urine over a 48-hour interval following dosing was 0.5% and 32.8% of the dose, respectively, following oral dosing, and 1.1% and 31.9% of the dose following IV dosing. In the case of fecal excretion over a 96-hour postdose, cilansetron, (4R)-hydroxy cilansetron, and (4S)-hydroxy cilansetron accounted for 1.2%, 6.9%, and 4.6% of the dose following oral administration, and 1.3%, 5.1%, and 11.3% of the dose following IV administration.

[3] = cilansetron 1 mg TID, IBS patients, Bayesian estimates, population PK model, arith. mean
[4] = cilansetron 1 mg TID, IBS patients
[5] = cilansetron 2 mg TID, IBS patients, Bayesian estimates, population PK model, arith. mean
[6] = cilansetron 2 mg TID, IBS patients
[7] = cilansetron 8 mg TID, IBS patients, Bayesian estimates, population PK model, arith. mean
[8] = cilansetron 8 mg TID, IBS patients
[9] = cilansetron 16 mg TID, IBS patients, Bayesian estimates, population PK model, arith. mean
[10] = cilansetron 16 mg TID, IBS patients
[11] = arithmetic mean percentages transported, 3 hours of incubation
[12] = 3 hours after IV administration
[13] = 6 hours after oral administration

Compound: Cc1nccn1CC1CCc2c(c3cccc4c3n2CC[C@H]4O)C1=O (stereo partly drawn) [(4R)-hydroxy cilansetron]
- CL/F [1, 3]: 234 L/h
- T½ [1, 3]: 9.55 h
- predicted steady-state AUC(0-τ) [1, 4]: 6.42 (1.40) ng · h/mL
- predicted steady-state Cmax [1, 4]: 1.05 (0.19) ng/mL
- CL/F [1, 5]: 232 L/h
- T½ [1, 5]: 9.56 h
- predicted steady-state AUC(0-τ) [1, 6]: 13.0 (2.64) ng · h/mL
- predicted steady-state Cmax [1, 6]: 2.17 (0.37) ng/mL
- CL/F [1, 7]: 229 L/h
- T½ [1, 7]: 9.79 h
- predicted steady-state AUC(0-τ) [1, 8]: 53.0 (10.1) ng · h/mL
- predicted steady-state Cmax [1, 8]: 8.56 (1.70) ng/mL
- CL/F [1, 9]: 232 L/h
- T½ [1, 9]: 9.80 h
- predicted steady-state AUC(0-τ) [1, 10]: 98.6 (18.8) ng · h/mL
- predicted steady-state Cmax [1, 10]: 16.7 (3.0) ng/mL
- Increase of apparent oral clearance per 1 mL/min creatinine clearance [1]: 0.447 L/h
- Membrane Passage (human P-glycoprotein; [11]): 14%
- Share of total radioactivity in plasma [2, 12]: 20.0%
- Share of total radioactivity in plasma [2, 13]: 25.7%
- Fecal excretion over 96 hours ([2]; IV): 5.1 % of the dose
- Fecal excretion over 96 hours ([2]; oral): 6.9 % of the dose

Compound: Cc1nccn1C[C@H]1CCc2c(c3cccc4c3n2CCC4)C1=O [Cilansetron, (R)-(−)-4,5,6,8,9,10-hexahydro-10-[(2-methyl-1H-imidazol-1-yl)methyl]-11H-pyrido-[3,2,1-jk]-carbazol-11-one]
- half-life ([1]; human, in vivo, 1 mg): 4.76 h
- half-life ([1]; human, in vivo, 2 mg): 4.3 h
- half-life ([1]; human, in vivo, 8 mg): 4.5 h
- half-life ([1]; human, in vivo, 16 mg): 4.5 h
- Apparent oral clearance decrease with concomitant medications ([1]; both, human, in vivo, po): 38.6%
- Apparent oral clearance increase in smokers ([1]; both, human, in vivo, po): 32.2%
- Increase of mean apparent oral clearance in smokers ([1]; both, human, in vivo, po): approximately 32%
- CL/F ([1]; human, in vivo, 1 mg): 28.3 L/h
- CL/F ([1]; human, in vivo, 2 mg): 34.1 L/h
- CL/F ([1]; human, in vivo, 8 mg): 34.2 L/h
- CL/F ([1]; human, in vivo, 16 mg): 37.3 L/h
- Concentration required to saturate P-glycoprotein in vitro (human P-glycoprotein; human): above 1000 ng/mL
- Membrane Passage (human P-glycoprotein; human, 3 h): 33%
- P-gp Factor (human P-glycoprotein; human, 3 h): 3
- AUC(0-last) ([2]; human, in vivo, iv): 999 (223) ng[-equiv] · h/mL
- AUC(0-inf) ([2]; human, in vivo, iv, 8 mg): 1217 (299) ng[-equiv] · h/mL
- AUC(0-last) ([2]; human, in vivo, po): 908 (244) ng[-equiv] · h/mL
- CL/F (blood) ([2]; human, in vivo, po): 2857 (1912) mL/min
- Cmax ([2]; human, in vivo, po): 171 (63) ng[-equiv]/mL
- AUC(0-inf) ([2]; human, in vivo, po, 8 mg): 1047 (248) ng[-equiv] · h/mL
- Absorption calculated from percentage renal recovery ([2]; male, human, in vivo): 99.8%
- Share of urinary excretion within 24 hours of dosing ([2]; male, human, in vivo): ≥ 87%
- Dose recovered in urine as unchanged drug ([2]; male, human, in vivo, 144 h): < 1%
- AUC(0-inf) ([2]; male, human, in vivo, iv): 209 ng·h/mL
- AUC(0-t) ([2]; male, human, in vivo, iv): 200 ng·h/mL
- CL (plasma) ([2]; male, human, in vivo, iv): 118 (42) mL/min
- Cumulative percent excreted in urine over 48 hours ([2]; male, human, in vivo, iv): 1.1 % of the dose
- Fecal excretion over 96 hours ([2]; male, human, in vivo, iv): 1.3 % of the dose
- Radioactivity in blood cells ([2]; male, human, in vivo, iv): 9.5 (4.1) %
- Recovery, Fecal ([2]; male, human, in vivo, iv): 28.9 (1.8) %
- Recovery, Total ([2]; male, human, in vivo, iv): 92.3 (1.5) %
- T½ ([2]; male, human, in vivo, iv): 107 h
- Vd ([2]; male, human, in vivo, iv): 85.3 L
- Vz ([2]; male, human, in vivo, iv): 1001 (162) L
- half-life ([2]; male, human, in vivo, iv): 1.51 h
- Share of total radioactivity in plasma ([2]; male, human, in vivo, iv, 3 h): 46.2%
- clearance ([2]; male, human, in vivo, iv, CL (blood)): 1040 mL/min
- clearance ([2]; male, human, in vivo, iv, CL (plasma)): 655 mL/min
- AUC(0-inf) ([2]; male, human, in vivo, po): 98.2 ng·h/mL
- AUC(0-t) ([2]; male, human, in vivo, po): 91.4 ng·h/mL
- Absorption of orally administered cilansetron ([2]; male, human, in vivo, po): higher than 90%
- Cmax ([2]; male, human, in vivo, po): 52.9 ng/mL
- Cumulative percent excreted in urine over 48 hours ([2]; male, human, in vivo, po): 0.5 % of the dose
- Fecal excretion over 96 hours ([2]; male, human, in vivo, po): 1.2 % of the dose
- Radioactivity in blood cells ([2]; male, human, in vivo, po): 10.5 (5.7) %
- Recovery, Fecal ([2]; male, human, in vivo, po): 27.5 (3.2) %
- Recovery, Total ([2]; male, human, in vivo, po): 90.8 (2.2) %
- Tmax ([2]; male, human, in vivo, po): 0.51 h
- Vd/F ([2]; male, human, in vivo, po): 155 L
- Vz/F ([2]; male, human, in vivo, po): 836 (275) L
- half-life ([2]; male, human, in vivo, po): 1.23 h
- Share of total radioactivity in plasma ([2]; male, human, in vivo, po, 6 h): 29.3%
- bioavailability ([2]; male, human, in vivo, po, Absolute Bioavailability): 49%

Compound: Cc1nccn1CC1CCc2c(c3cccc4c3n2CC[C@@H]4O)C1=O (stereo partly drawn) [(4S)-hydroxy cilansetron]
- CL/F [1, 3]: 140 L/h
- T½ [1, 3]: 5.42 h
- predicted steady-state AUC(0-τ) [1, 4]: 3.85 (0.92) ng · h/mL
- predicted steady-state Cmax [1, 4]: 0.546 (0.105) ng/mL
- CL/F [1, 5]: 136 L/h
- T½ [1, 5]: 5.55 h
- predicted steady-state AUC(0-τ) [1, 6]: 7.68 (1.59) ng · h/mL
- predicted steady-state Cmax [1, 6]: 1.10 (0.20) ng/mL
- CL/F [1, 7]: 134 L/h
- T½ [1, 7]: 5.64 h
- predicted steady-state AUC(0-τ) [1, 8]: 31.6 (7.68) ng · h/mL
- predicted steady-state Cmax [1, 8]: 4.46 (1.04) ng/mL
- CL/F [1, 9]: 142 L/h
- T½ [1, 9]: 5.31 h
- predicted steady-state AUC(0-τ) [1, 10]: 63.2 (16.5) ng · h/mL
- predicted steady-state Cmax [1, 10]: 9.03 (2.03) ng/mL
- Increase of apparent oral clearance per 1 mL/min creatinine clearance [1]: 0.883 L/h
- Membrane Passage (human P-glycoprotein; [11]): 13%
- Share of total radioactivity in plasma [2, 12]: 14.1%
- Share of total radioactivity in plasma [2, 13]: 13.8%
- Fecal excretion over 96 hours ([2]; IV): 11.3 % of the dose
- Fecal excretion over 96 hours ([2]; oral): 4.6 % of the dose
